Assays:
[1] = target: T1, von Hippel-Lindau disease tumor suppressor/Interleukin-1 receptor-associated kinase 1 (Homo sapiens, UniProt P51617+P40337); experiment: Protac activity at IRAK1/VHL E3 ligase in HEK293T cells assessed as induction of IRAK1 degradation at 10 uM measured after 24 hrs by Western blot analysis relative to control; format: cell-based
Target sequence in this assay (P40337 whole entry, looked up, the tested form may be a part): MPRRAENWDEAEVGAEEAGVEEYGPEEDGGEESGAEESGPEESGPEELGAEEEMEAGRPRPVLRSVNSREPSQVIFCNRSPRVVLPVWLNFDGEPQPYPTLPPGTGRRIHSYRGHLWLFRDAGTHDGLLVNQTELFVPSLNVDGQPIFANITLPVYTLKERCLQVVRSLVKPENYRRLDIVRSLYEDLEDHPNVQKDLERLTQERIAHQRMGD
Target sequence in this assay (P51617 whole entry, looked up, the tested form may be a part): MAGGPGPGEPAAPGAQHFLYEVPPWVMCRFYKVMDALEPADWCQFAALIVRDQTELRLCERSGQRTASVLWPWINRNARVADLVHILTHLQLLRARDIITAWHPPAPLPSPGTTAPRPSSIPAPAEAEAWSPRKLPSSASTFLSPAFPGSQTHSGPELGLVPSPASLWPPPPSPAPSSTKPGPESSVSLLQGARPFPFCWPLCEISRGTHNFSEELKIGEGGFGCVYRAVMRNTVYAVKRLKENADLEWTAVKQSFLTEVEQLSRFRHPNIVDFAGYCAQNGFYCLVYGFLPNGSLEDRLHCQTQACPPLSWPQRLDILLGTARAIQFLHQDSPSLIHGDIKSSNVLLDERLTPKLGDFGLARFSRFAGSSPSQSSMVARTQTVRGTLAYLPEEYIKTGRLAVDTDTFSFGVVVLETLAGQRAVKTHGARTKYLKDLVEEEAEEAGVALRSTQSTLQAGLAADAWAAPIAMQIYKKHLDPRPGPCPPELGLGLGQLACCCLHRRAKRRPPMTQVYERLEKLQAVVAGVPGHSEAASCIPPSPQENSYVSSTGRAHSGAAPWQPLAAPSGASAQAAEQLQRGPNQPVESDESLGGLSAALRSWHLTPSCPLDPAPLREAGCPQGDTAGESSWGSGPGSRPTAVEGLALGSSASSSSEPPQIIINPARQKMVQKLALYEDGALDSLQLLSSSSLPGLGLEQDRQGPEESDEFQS

[2] = target: Interleukin-1 receptor-associated kinase 1 (Homo sapiens, UniProt P51617); experiment: (§1) Inhibition of truncated human N-terminal GST-fusion tagged IRAK1 (194 to 712 residues) expressed in baculovirus expression system using FAM-labelled peptide as substrate preincubated for 10 mins followed by substrate addition and further incubated for 1 hr in presence of ATP at Km concentration by caliper mobility shift assay
Chain of Interleukin-1 receptor-associated kinase 1 (P51617 whole entry, the tested form may be a part): as the sequence (P51617 whole entry, looked up, the tested form may be a part) above

[3] = target: von Hippel-Lindau disease tumor suppressor (Homo sapiens, UniProt P40337); experiment: Displacement of 5-FAM-labelled DEALA-HypYIPMDDDFQLRSF peptide from VHL (unknown origin) by fluorescence polarization assay
Chain of von Hippel-Lindau disease tumor suppressor (P40337 whole entry, the tested form may be a part): as the sequence (P40337 whole entry, looked up, the tested form may be a part) above

[4] = target: T2, Interleukin-1 receptor-associated kinase 4 (Homo sapiens, UniProt Q9NWZ3); experiment: as §1, with “full length” for “truncated”, “IRAK4” for “IRAK1 (194 to 712 residues)”
T2 sequence (Q9NWZ3 whole entry): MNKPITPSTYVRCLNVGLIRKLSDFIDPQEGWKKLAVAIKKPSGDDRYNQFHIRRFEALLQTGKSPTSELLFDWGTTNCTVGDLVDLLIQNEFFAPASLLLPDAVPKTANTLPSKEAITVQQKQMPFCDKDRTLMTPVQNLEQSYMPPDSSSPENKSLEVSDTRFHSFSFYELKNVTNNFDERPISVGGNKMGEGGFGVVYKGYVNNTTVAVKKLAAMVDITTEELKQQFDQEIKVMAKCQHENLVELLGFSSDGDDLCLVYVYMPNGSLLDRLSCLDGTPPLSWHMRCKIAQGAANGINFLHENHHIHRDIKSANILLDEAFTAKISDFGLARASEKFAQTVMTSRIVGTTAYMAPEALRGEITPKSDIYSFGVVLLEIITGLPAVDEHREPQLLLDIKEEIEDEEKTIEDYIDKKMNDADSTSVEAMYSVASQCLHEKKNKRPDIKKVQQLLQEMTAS

[5] = Cytotoxicity against human HBL1 cells assessed as cell growth inhibition measured after 12 days by WST-8 assay; format: functional, cell-based; conditions: HBL1, 288 h
OCI-Ly10 = experiment: Cytotoxicity against human OCILY10 cells assessed as reduction in cell viability measured after 12 days by CellTiter-Glo assay; format: functional; conditions: time 12 day
[6] = target: T1, von Hippel-Lindau disease tumor suppressor/Interleukin-1 receptor-associated kinase 1; experiment: Protac activity at IRAK1/VHL E3 ligase in HEK293T cells assessed as induction of IRAK1 degradation measured after 24 hrs by Western blot analysis; format: cell-based
Target sequence in this assay (P51617 whole entry, the tested form may be a part): as the sequence (P51617 whole entry, looked up, the tested form may be a part) above
Target sequence in this assay (P40337 whole entry, the tested form may be a part): as the sequence (P40337 whole entry, looked up, the tested form may be a part) above

[7] = Cytotoxicity against human HBL1 cells assessed as reduction in cell viability measured after 12 days by CellTiter-Glo assay; format: functional; conditions: time 12 day
[8] = target: T1, von Hippel-Lindau disease tumor suppressor/Interleukin-1 receptor-associated kinase 1; experiment: Protac activity at IRAK1/VHL E3 ligase in HEK293T cells assessed as induction of IRAK1 degradation at >=1 uM measured after 2 hrs by Western blot analysis relative to control; format: cell-based; conditions: dose microM >=1, time 2.0 hrs
Target sequence in this assay (P40337 whole entry, looked up, the tested form may be a part): as above
Target sequence in this assay (P51617 whole entry, looked up, the tested form may be a part): as the sequence (P51617 whole entry, looked up, the tested form may be a part) above

[9] = target: T1, von Hippel-Lindau disease tumor suppressor/Interleukin-1 receptor-associated kinase 1; experiment: Protac activity at IRAK1/VHL E3 ligase in HEK293T cells assessed as induction of IRAK1 degradation at >=1 uM measured after 8 hrs by Western blot analysis relative to control; format: cell-based; conditions: dose microM >=1, time 8.0 hrs
Target sequence in this assay (P40337 whole entry, looked up, the tested form may be a part): as the sequence (P40337 whole entry, looked up, the tested form may be a part) above
Target sequence in this assay (P51617 whole entry, looked up, the tested form may be a part): as the sequence (P51617 whole entry, looked up, the tested form may be a part) above

| SMILES | %max [1] [%] | IC50 [2] [nM] | IC50 [3] [nM] | IC50 [4] [nM] | IC50 [5] [nM] | Activity (OCI-Ly10) [µM] | DC50 [6] [nM] | Activity [7] [µM] | Activity [8] [%] | Activity [9] [%] |
| --- | --- | --- | --- | --- | --- | --- | --- | --- | --- | --- |
| COc1cc(N2CCC(OCC(=O)N[C@H](C(=O)N3C[C@H](O)C[C@H]3C(=O)NCc3ccc(-c4scnc4C)cc3)C(C)(C)C)CC2)ccc1NC(=O)c1cccc(-c2ccn[nH]2)n1 | 95 | 60 | 1400 | 260 |  |  |  |  |  |  |
| COc1cc(N2CCOCC2)ccc1NC(=O)c1cccc(-c2ccn[nH]2)n1 |  | 23 |  | 24 | 2800 |  |  |  |  |  |
| COc1cc(N2CCC(OCC(=O)N[C@H](C(=O)N3C[C@@H](O)C[C@H]3C(=O)N[C@@H](C)c3ccc(-c4scnc4C)cc3)C(C)(C)C)CC2)ccc1NC(=O)c1cccc(-c2ccn[nH]2)n1 | 18 | 79 | > 10000 | 320 |  | 3 | > 10000 | 1.5 |  |  |
| COc1cc(N2CCN(CCC(=O)N[C@H](C(=O)N3C[C@H](O)C[C@H]3C(=O)NCc3ccc(-c4scnc4C)cc3)C(C)(C)C)CC2)ccc1NC(=O)c1cccc(-c2cc[nH]n2)n1 | 88 | 80 | 1650 | 368 |  |  | 134 |  | 50 | > 90 |
